Experimental data: article PMC3272276 (The Journal of Organic Chemistry, 2010)

System: Candida albicans
Assay: Antifungal activity
Type: cell-based

For theonellamide A, which “inhibition of growth of Candida albicans (in words)” value is on record?
The value was “antifungal activity of the extracts was traced to the known peptide theonellamide A”.

For mutremdamide A, which “inhibition of growth of Candida albicans (in words)” value is on record?
The value was “None of the koshikamides or mutremdamide A inhibited the growth”.
